What was measured:
[1] = system: Beet Armyworm (Spodoptera exigua) ("BAW"); experiment: Bioassay on beet armyworm (BAW), 128-well diet tray assay; type: in vivo; conditions: for pest or weed control at 50 µg/cm2: Table ABC (FB), activity rating class, read-out: BAW (Biological Results, Insect species); for mortality at 50 µg/cm2: 168 h, 50 μg/cm^2 on artificial diet, second instar BAW larvae, 25° C., five to seven days, average of eight wells, read-out: BAW % Control (or Mortality) rating
Experimental: (§1) Certain molecules disclosed in this document were tested against BAW and CEW using procedures described in the following examples. In the reporting of the results, the “BAW & CL Rating Table” was used (See Table Section). BIOASSAYS ON BAW
Bioassays on BAW were conducted using a 128-well diet tray assay. one to five second instar BAW larvae were placed in each well (3 mL) of the diet tray that had been previously filled with 1 mL of artificial diet to which 50 μg/cm^2 of the test compound (dissolved in 50 μL of 90:10 acetone-water mixture) had been applied (to each of eight wells) and then allowed to dry. Trays were covered with a clear self-adhesive cover and held at 25° C., 14:10 light-dark for five to seven days. Percent mortality was recorded for the larvae in each well; activity in the eight wells was then averaged. The results are indicated in the table entitled “Table ABC: Biological Results” (See Table Section).

[2] = system: Cabbage Looper (Trichoplusia ni) ("CL"); experiment: Bioassay on cabbage looper (CL), 128-well diet tray assay; type: in vivo; conditions: for pest or weed control at 50 µg/cm2: Table ABC (FB), activity rating class, read-out: CL (Biological Results, Insect species); for mortality at 50 µg/cm2: 168 h, 50 μg/cm^2 on artificial diet, second instar CL larvae, 25° C., five to seven days, average of eight wells, read-out: CL % Control (or Mortality) rating
Experimental: as §1
Bioassays on CL were conducted using a 128-well diet tray assay. one to five second instar CL larvae were placed in each well (3 mL) of the diet tray that had been previously filled with 1 mL of artificial diet to which 50 μg/cm^2 of the test compound (dissolved in 50 μL of 90:10 acetone-water mixture) had been applied (to each of eight wells) and then allowed to dry. Trays were covered with a clear self-adhesive cover and held at 25° C., 14:10 light-dark for five to seven days. Percent mortality was recorded for the larvae in each well; activity in the eight wells was then averaged. The results are indicated in the table entitled “Table ABC: Biological Results” (See Table Section).

Compound | pest or weed control at 50 µg/cm2 [1] [%] | pest or weed control at 50 µg/cm2 [2] [%] | mortality at 50 µg/cm2 [1] [%] | mortality at 50 µg/cm2 [2] [%]
CCc1ccccc1N1C(=O)CS/C1=N\C(=O)NCc1cccc(-c2ncn(-c3ccc(OC(F)(F)F)cc3)n2)c1 [FB29, (Z)-1-(3-(2-ethylphenyl)-4-oxothiazolidin-2-ylidene)-3-(3-(1-(4-(trifluoromethoxy)phenyl)-1H-1,2,4-triazol-3-yl)benzyl)urea] | 50 to 100 | 50 to 100 |  | 
CCc1cccc(C)c1N1C(=O)CS/C1=N\C(=O)NCc1cccc(-c2ncn(-c3ccc(OC(F)(F)F)cc3)n2)c1 [FB30, (Z)-1-(3-(2-ethyl-6-methylphenyl)-4-oxothiazolidin-2-ylidene)-3-(3-(1-(4-(trifluoromethoxy)phenyl)-1H-1,2,4-triazol-3-yl)benzyl)urea] | 50 to 100 | 50 to 100 |  | 
CC(C)c1ccccc1N1C(=O)CS/C1=N\C(=O)NCc1cccc(-c2ncn(-c3ccc(OC(F)(F)F)cc3)n2)c1 [FB31, (Z)-1-(3-(2-isopropylphenyl)-4-oxothiazolidin-2-ylidene)-3-(3-(1-(4-(trifluoromethoxy)phenyl)-1H-1,2,4-triazol-3-yl)benzyl)urea] | 50 to 100 | 50 to 100 |  | 
Cc1ccc(N2C(=O)CS/C2=N\C(=O)NCc2cccc(-c3ncn(-c4ccc(OC(F)(F)F)cc4)n3)c2)c(C(C)C)c1 [FB32, (Z)-1-(3-(2-isopropyl-4-methylphenyl)-4-oxothiazolidin-2-ylidene)-3-(3-(1-(4-(trifluoromethoxy)phenyl)-1H-1,2,4-triazol-3-yl)benzyl)urea] | 50 to 100 | 50 to 100 |  | 
CC(C)c1cc(F)ccc1N1C(=O)CS/C1=N\C(=O)NCc1cccc(-c2ncn(-c3ccc(OC(F)(F)F)cc3)n2)c1 [FB33, (Z)-1-(3-(4-fluoro-2-isopropylphenyl)-4-oxothiazolidin-2-ylidene)-3-(3-(1-(4-(trifluoromethoxy)phenyl)-1H-1,2,4-triazol-3-yl)benzyl)urea] | 50 to 100 | 50 to 100 |  | 
CC(C)c1ccc(Cl)cc1N1C(=O)CS/C1=N\C(=O)NCc1cccc(-c2ncn(-c3ccc(OC(F)(F)F)cc3)n2)c1 [FB35, (Z)-1-(3-(5-chloro-2-isopropylphenyl)-4-oxothiazolidin-2-ylidene)-3-(3-(1-(4-(trifluoromethoxy)phenyl)-1H-1,2,4-triazol-3-yl)benzyl)urea] | 50 to 100 | 50 to 100 |  | 
COc1ccc(NC(=S)NC(=O)NCCCCc2cccc(-c3ncn(-c4ccc(OC(F)(F)F)cc4)n3)c2)c(C)c1 [FB36, 1-[(4-methoxy-2-methyl-phenyl)carbamothioyl]-3-[4-[3-[1-[4-(trifluoromethoxy)phenyl]-1H-1,2,4-triazol-3-yl]phenyl]butyl]urea] | 0 to 50 | 50 to 100 |  | 
CC(C)c1ccc(Cl)cc1NC(=S)NC(=O)NCCCCc1cccc(-c2ncn(-c3ccc(OC(F)(F)F)cc3)n2)c1 [FB37, 1-[(5-chloro-2-isopropyl-phenyl)carbamothioyl]-3-[4-[3-[1-[4-(trifluoromethoxy)phenyl]-1H-1,2,4-triazol-3-yl]phenyl]butyl]urea] | 0 to 50 | 0 to 50 |  | 
COc1ccc(N2C(=O)CS/C2=N\C(=O)NCCCCc2cccc(-c3ncn(-c4ccc(OC(F)(F)F)cc4)n3)c2)c(C)c1 [FB38, (Z)-1-(3-(4-methoxy-2-methylphenyl)-4-oxothiazolidin-2-ylidene)-3-(4-(3-(1-(4-(trifluoromethoxy)phenyl)-1H-1,2,4-triazol-3-yl)phenyl)butyl)urea] | 0 to 50 | 50 to 100 |  | 
CC(C)c1ccc(Cl)cc1N1C(=O)CS/C1=N\C(=O)NCCCCc1cccc(-c2ncn(-c3ccc(OC(F)(F)F)cc3)n2)c1 [FB39, (Z)-1-(3-(5-chloro-2-isopropylphenyl)-4-oxothiazolidin-2-ylidene)-3-(4-(3-(1-(4-(trifluoromethoxy)phenyl)-1H-1,2,4-triazol-3-yl)phenyl)butyl)urea] | 50 to 100 | 50 to 100 |  | 
Cc1ccc(C(C)C)c(N2C(=O)CS/C2=N\C(=O)N[C@H](C)Cc2ccc(-c3ncn(-c4ccc(OC(F)(F)F)cc4)n3)cc2)c1 [FB45, (R,Z)-1-(3-(2-isopropyl-5-methylphenyl)-4-oxothiazolidin-2-ylidene)-3-(1-(4-(1-(4-(trifluoromethoxy)phenyl)-1H-1,2,4-triazol-3-yl)phenyl)propan-2-yl)urea] | 50 to 100 | 50 to 100 |  | 
CC(C)c1ccc(Cl)cc1N1C(=O)CS/C1=N\C(=O)NCCc1ccc(-c2ncn(-c3ccc(C(F)(F)F)cc3)n2)cc1 [FB50, (Z)-1-(3-(5-chloro-2-isopropylphenyl)-4-oxothiazolidin-2-ylidene)-3-(4-(1-(4-(trifluoromethyl)phenyl)-1H-1,2,4-triazol-3-yl)phenethyl)urea] | 50 to 100 | 50 to 100 |  | 
Cc1ccc(C(C)C)c(N2C(=O)CS/C2=N\C(=O)NC(C)(C)Cc2ccc(-c3ncn(-c4ccc(OC(F)(F)F)cc4)n3)cc2)c1 [FB52, (Z)-1-(3-(2-isopropyl-5-methylphenyl)-4-oxothiazolidin-2-ylidene)-3-(2-methyl-1-(4-(1-(4-(trifluoromethoxy)phenyl)-1H-1,2,4-triazol-3-yl)phenyl)propan-2-yl)urea] | 50 to 100 | 50 to 100 |  | 
CCc1ccc(C)cc1N1/C(=N/C(=O)NCCc2ccc(-c3ncn(-c4ccc(OC(F)(F)F)cc4)n3)cc2)SCC1C (stereo not drawn) [FB55, (Z)-1-(3-(2-ethyl-5-methylphenyl)-4-methylthiazolidin-2-ylidene)-3-(4-(1-(4-(trifluoromethoxy)phenyl)-1H-1,2,4-triazol-3-yl)phenethyl)urea] | 50 to 100 | 50 to 100 |  | 
Cc1ccc(C(C)C)c(N2C(=O)C(F)S/C2=N\C(=O)NCCc2ccc(-c3ncn(-c4ccc(OC(F)(F)F)cc4)n3)cc2)c1 (stereo not drawn) [FB64, (Z)-1-(5-fluoro-3-(2-isopropyl-5-methylphenyl)-4-oxothiazolidin-2-ylidene)-3-(4-(1-(4-(trifluoromethoxy)phenyl)-1H-1,2,4-triazol-3-yl)phenethyl)urea] | 50 to 100 | 50 to 100 |  | 
CCS/C(=N\C(=O)NCCc1ccc(-c2ncn(-c3ccc(OC(F)(F)F)cc3)n2)cc1)Nc1cc(C)ccc1C(C)C [FB66, (Z)-ethyl N-(2-isopropyl-5-methylphenyl)-N′-((4-(1-(4-(trifluoromethoxy)phenyl)-1H-1,2,4-triazol-3-yl)phenethyl)carbamoyl)carbamimidothioate] | 50 to 100 | 50 to 100 |  | 
Cc1ccc(C(C)C)c(N2C(=O)C(C)(C)S/C2=N\C(=O)NCCc2ccc(-c3ncn(-c4ccc(OC(F)(F)F)cc4)n3)cc2)c1 [FB68, (Z)-1-(3-(2-isopropyl-5-methylphenyl)-5,5-dimethyl-4-oxothiazolidin-2-ylidene)-3-(4-(1-(4-(trifluoromethoxy)phenyl)-1H-1,2,4-triazol-3-yl)phenethyl)urea] | 50 to 100 | 50 to 100 |  | 
Cc1ccc(C(C)C)c(N2C(=O)C3(CC3)S/C2=N\C(=O)NCCc2ccc(-c3ncn(-c4ccc(OC(F)(F)F)cc4)n3)cc2)c1 [FB69, (Z)-1-(6-(2-isopropyl-5-methylphenyl)-7-oxo-4-thia-6-azaspiro[2.4]heptan-5-ylidene)-3-(4-(1-(4-(trifluoromethoxy)phenyl)-1H-1,2,4-triazol-3-yl)phenethyl)urea] | 50 to 100 | 50 to 100 |  | 
Cc1ccc(C(C)C)c(N2C(=O)C(C(C)(C)O)S/C2=N\C(=O)NCCc2ccc(-c3ncn(-c4ccc(OC(F)(F)F)cc4)n3)cc2)c1 (stereo not drawn) [FB72, (Z)-1-(5-(2-hydroxypropan-2-yl)-3-(2-isopropyl-5-methylphenyl)-4-oxothiazolidin-2-ylidene)-3-(4-(1-(4-(trifluoromethoxy)phenyl)-1H-1,2,4-triazol-3-yl)phenethyl)urea] | 50 to 100 | 50 to 100 |  | 
Cc1ccccc1N1C(=O)CS/C1=N\C(=O)NCc1ccc(-c2ncn(-c3ccc(OC(F)(F)F)cc3)n2)cc1 [P1, (Z)-1-(4-oxo-3-(o-tolyl)thiazolidin-2-ylidene)-3-(4-(1-(4-(trifluoromethoxy)phenyl)-1H-1,2,4-triazol-3-yl)benzyl)urea] |  |  | 50 to 100 | 50 to 100
CCc1ccccc1N1C(=O)CS/C1=N\C(=O)NCc1ccc(-c2ncn(-c3ccc(OC(F)(F)F)cc3)n2)cc1 [P2, P532, (Z)-1-(3-(2-ethylphenyl)-4-oxothiazolidin-2-ylidene)-3-(4-(1-(4-(trifluoromethoxy)phenyl)-1H-1,2,4-triazol-3-yl)benzyl)urea] |  |  | 50 to 100 | 50 to 100

Reference: patent US9783532B2, “Molecules having certain pesticidal utilities, and intermediates, compositions, and processes related thereto” (Dow AgroSciences LLC, priority 2013, dated 2017)
